Several values for one entry are separate records, joined by “and”; a condition that tells them apart may be missing. Equal entries are not always repeated.
What was measured:
recombinant SmCB1 = experiment: Kinetic inhibition assay with recombinant SmCB1 (k2nd); assay type: biochemical, S. mansoni; conditions: for decrease in inhibitory potency vs gallinamide A: ratio of k2nd values; for SmCB1 inhibition k2nd: second-order rate constant (kinact/Ki), substrate Cbz–Phe–Arg–AMC, pH 5.5, 37 °C, mean ± SE
Procedure: Gallinamide A and a series of its 18 derivatives were evaluated in vitro as inhibitors of SmCB1 to explore the binding specificities of the subsites in the enzyme’s active site. The gallinamide A inhibitor scaffold can be defined by positions P4 through P1′ (Schechter and Berger nomenclature[37]), which were assigned according to the binding mode analysis (see the crystallographic section below). The substituents R4, R1, and R1′ introduced on the scaffold (Table 2) are numbered according to the respective positions P4, P1, and P1′. The compounds’ second-order rate constants (k2nd) were determined using a kinetic inhibition assay with recombinant SmCB1 and the substrate, Cbz–Phe–Arg–AMC.
Inhibition measurements were performed in duplicate in 96-well microplates (100 μL assay volume) at 37 °C. SmCB1 (40 pM) was added to a mixture of the fluorogenic substrate Cbz–Phe–Arg–AMC (25 μM) and an inhibitor (0–100 μM) in 0.1 M sodium acetate, pH 5.5, containing 2.5 mM dithiothreitol and 0.01% (w/v) BRIJ 35. Substrate hydrolysis was monitored in an Infinite M1000 microplate reader (Tecan) at excitation and emission wavelengths of 360 and 465 nm, respectively, for up to 150 min. An observed first-order rate constant, kobs, was calculated at each inhibitor concentration by fitting the progress curve to the equation P = vi/kobs(1 – exp(−kobst)) + d where P is the product formation, t is the reaction time, vi is the initial velocity, and d is the offset. […] The second-order rate constant, k2nd, (and SE value) was determined by fitting the linear equation kobs = (k2nd[I])/(1 + [S]/Km), where [S] is the substrate concentration, [I] is the inhibitor concentration, and KM is the Michaelis–Menten constant. The KM value determined for SmCB1 was 25 μM. […] To determine IC50 values, SmCB1 (40 pM) was preincubated with the inhibitor (0–100 μM) for 30 min under assay conditions as described above, followed by the addition of the fluorogenic substrate Cbz–Phe–Arg–AMC (20 μM). Substrate hydrolysis was monitored for 30 min in a microplate reader as described above. The IC50 values were determined by nonlinear regression using GraFit software (Erithacus Software).

[1] = tested on: ex vivo adult mixed sex S. mansoni; experiment: Phenotypic screen with ex vivo adult schistosomes; assay type: cell-based; conditions: for adult severity score: scale 0 to 4
Procedure: In the next step, the bioactive compounds gallinamide A, 1, 6, and 9 (selected for structural analyses (see below)) were phenotypically screened against adult schistosomes. Experiments were performed at 1, 2, 5, and 10 μM with ex vivo adult mixed sex S. mansoni, and the phenotypes observed over 48 h were assigned severity scores ranging from 0 to 4 (Table 3 and Table S3).
For adult schistosomes, screens were performed in 24-well plates containing four male worms and one to two female worms per well in a final volume of 2 mL of complete Basch medium. Compounds were added at the final concentrations between 1 and 10 μM. Incubations were maintained for 48 h at 37 °C under 5% CO2. Afterward, the adult worms were collected, washed in RPMI 1640 medium, and used for soluble protein extract preparation.
A constrained nomenclature of “descriptors”[39],[42] was used to record the multiple and dynamic changes in movement, shape, and translucence that the schistosome parasite is capable of (Table S1 for NTS and Table S3 for adults). These descriptors were then converted into an ordinal “severity score” system ranging from 0 (no effect) to 4 (maximum effect), which allows for the relative comparison of compound effects.

CCC(C)C(C(=O)OC(CC(C)C)C(=O)NC(CC(C)C)C(=O)NC(C)C=CC(=O)N1C(=O)C=C(OC)C1CC(C)C)N(C)C (centres unmarked) [compound 1]
decrease in inhibitory potency vs gallinamide A (recombinant SmCB1): 2 fold | SmCB1 inhibition k2nd (recombinant SmCB1): 3394 ± 133 M^–1·s^–1 | SmCB1 inhibition k2nd (recombinant SmCB1; listed as Cpd.1): 3394 M^–1·s^–1 | adult phenotype descriptors ([1]; 2 h, 1 µM): N | adult severity score ([1]; 2 h, 1 μM): 0 | adult phenotype descriptors ([1]; 2 h, 2 µM): N | adult severity score ([1]; 2 h, 2 μM): 0 | adult phenotype descriptors ([1]; 2 h, 5 µM): N | adult severity score ([1]; 2 h, 5 μM): 0 | adult phenotype descriptors ([1]; 2 h, 10 µM): N | adult severity score ([1]; 2 h, 10 μM): 0 | adult phenotype descriptors ([1]; 6 h, 1 µM): N | adult severity score ([1]; 6 h, 1 μM): 0 | adult phenotype descriptors ([1]; 6 h, 2 µM): N | adult severity score ([1]; 6 h, 2 μM): 0 | adult phenotype descriptors ([1]; 6 h, 5 µM): N | adult severity score ([1]; 6 h, 5 μM): 0 | adult phenotype descriptors ([1]; 6 h, 10 µM): unc | adult severity score ([1]; 6 h, 10 μM): 1 | adult phenotype descriptors ([1]; 24 h, 1 µM): N | adult severity score ([1]; 24 h, 1 μM): 0 | adult phenotype descriptors ([1]; 24 h, 2 µM): N | adult severity score ([1]; 24 h, 2 μM): 0 | adult phenotype descriptors ([1]; 24 h, 5 µM): N | adult severity score ([1]; 24 h, 5 μM): 0 | adult severity score ([1]; 24 h, 10 μM): 4 | adult phenotype descriptors ([1]; 48 h, 1 µM): N | adult severity score ([1]; 48 h, 1 μM): 0 | adult phenotype descriptors ([1]; 48 h, 2 µM): unc, dark | adult severity score ([1]; 48 h, 2 μM): 2 | adult phenotype descriptors ([1]; 48 h, 5 µM): unc, dark | adult severity score ([1]; 48 h, 5 μM): 2 | adult severity score ([1]; 48 h, 10 μM): 4

COC1=CC(=O)N(C(=O)/C=C/[C@H](C)NC(=O)[C@H](CC(C)C)NC(=O)[C@H](CC(C)C)OC(=O)[C@H](Cc2ccccc2)N(C)C)[C@H]1Cc1ccccc1 [compound 6]
decrease in inhibitory potency vs gallinamide A (recombinant SmCB1): 3.4 fold | SmCB1 inhibition k2nd (recombinant SmCB1): 1930 ± 304 M^–1·s^–1 | SmCB1 inhibition k2nd (recombinant SmCB1; listed as Cpd.6): 1930 M^–1·s^–1 | adult phenotype descriptors ([1]; 2 h, 1 µM): N | adult severity score ([1]; 2 h, 1 μM): 0 | adult phenotype descriptors ([1]; 2 h, 2 µM): N | adult severity score ([1]; 2 h, 2 μM): 0 | adult phenotype descriptors ([1]; 2 h, 5 µM): unc | adult severity score ([1]; 2 h, 5 μM): 1 | adult phenotype descriptors ([1]; 2 h, 10 µM): unc, on sides | adult severity score ([1]; 2 h, 10 μM): 2 | adult phenotype descriptors ([1]; 6 h, 1 µM): N | adult severity score ([1]; 6 h, 1 μM): 0 | adult phenotype descriptors ([1]; 6 h, 2 µM): N | adult severity score ([1]; 6 h, 2 μM): 0 | adult phenotype descriptors ([1]; 6 h, 5 µM): unc | adult severity score ([1]; 6 h, 5 μM): 1 | adult phenotype descriptors ([1]; 6 h, 10 µM): unc, on sides | adult severity score ([1]; 6 h, 10 μM): 2 | adult phenotype descriptors ([1]; 24 h, 1 µM): N | adult severity score ([1]; 24 h, 1 μM): 0 | adult phenotype descriptors ([1]; 24 h, 2 µM): N | adult severity score ([1]; 24 h, 2 μM): 0 | adult severity score ([1]; 24 h, 5 μM): 2 | adult severity score ([1]; 24 h, 10 μM): 4 | adult phenotype descriptors ([1]; 48 h, 1 µM): N | adult severity score ([1]; 48 h, 1 μM): 0 | adult phenotype descriptors ([1]; 48 h, 2 µM): dark | adult severity score ([1]; 48 h, 2 μM): 1 | adult severity score ([1]; 48 h, 5 μM): 4 | adult severity score ([1]; 48 h, 10 μM): 4

CCC(C)C(C(=O)OC(CC(C)C)C(=O)NC(CC(C)C)C(=O)NC(C)C=CC(=O)N1C(=O)C=C(OC)C1Cc1ccccc1)N(C)C (centres unmarked) [compound 9]
decrease in inhibitory potency vs gallinamide A (recombinant SmCB1): 8.4 fold | SmCB1 inhibition k2nd (recombinant SmCB1): 793 ± 75 M^–1·s^–1 | adult phenotype descriptors ([1]; 2 h, 1 µM): N | adult severity score ([1]; 2 h, 1 μM): 0 | adult phenotype descriptors ([1]; 2 h, 2 µM): N | adult severity score ([1]; 2 h, 2 μM): 0 | adult phenotype descriptors ([1]; 2 h, 5 µM): unc | adult severity score ([1]; 2 h, 5 μM): 1 | adult phenotype descriptors ([1]; 2 h, 10 µM): unc | adult severity score ([1]; 2 h, 10 μM): 1 | adult phenotype descriptors ([1]; 6 h, 1 µM): N | adult severity score ([1]; 6 h, 1 μM): 0 | adult phenotype descriptors ([1]; 6 h, 2 µM): N | adult severity score ([1]; 6 h, 2 μM): 0 | adult phenotype descriptors ([1]; 6 h, 5 µM): unc | adult severity score ([1]; 6 h, 5 μM): 1 | adult phenotype descriptors ([1]; 6 h, 10 µM): unc, on sides | adult severity score ([1]; 6 h, 10 μM): 2 | adult phenotype descriptors ([1]; 24 h, 1 µM): N | adult severity score ([1]; 24 h, 1 μM): 0 | adult phenotype descriptors ([1]; 24 h, 2 µM): N | adult severity score ([1]; 24 h, 2 μM): 0 | adult phenotype descriptors ([1]; 24 h, 5 µM): unc, Dark | adult severity score ([1]; 24 h, 5 μM): 2 | adult severity score ([1]; 24 h, 10 μM): 4 | adult phenotype descriptors ([1]; 48 h, 1 µM): N | adult severity score ([1]; 48 h, 1 μM): 0 | adult phenotype descriptors ([1]; 48 h, 2 µM): unc, dark | adult severity score ([1]; 48 h, 2 μM): 2 | adult severity score ([1]; 48 h, 5 μM): 4 | adult severity score ([1]; 48 h, 10 μM): 4

CC[C@H](C)[C@@H](C(=O)O[C@@H](CC(C)C)C(=O)N[C@@H](CC(C)C)C(=O)N[C@@H](C)/C=C/C(=O)N1C(=O)C=C(OC)[C@@H]1C)N(C)C [gallinamide A]
SmCB1 inhibition k2nd (recombinant SmCB1): 6644 M^–1·s^–1 and 6644 ± 532 M^–1·s^–1 | SmCB1 inhibition k2nd (recombinant SmCB1; listed as Gallinamide A): 6644 M^–1·s^–1 | adult phenotype descriptors ([1]; 2 h, 1 µM): N | adult severity score ([1]; 2 h, 1 μM): 0 | adult phenotype descriptors ([1]; 2 h, 2 µM): N | adult severity score ([1]; 2 h, 2 μM): 0 | adult phenotype descriptors ([1]; 2 h, 5 µM): N | adult severity score ([1]; 2 h, 5 μM): 0 | adult phenotype descriptors ([1]; 2 h, 10 µM): N | adult severity score ([1]; 2 h, 10 μM): 0 | adult phenotype descriptors ([1]; 6 h, 1 µM): N | adult severity score ([1]; 6 h, 1 μM): 0 | adult phenotype descriptors ([1]; 6 h, 2 µM): N | adult severity score ([1]; 6 h, 2 μM): 0 | adult phenotype descriptors ([1]; 6 h, 5 µM): N | adult severity score ([1]; 6 h, 5 μM): 0 | adult phenotype descriptors ([1]; 6 h, 10 µM): N | adult severity score ([1]; 6 h, 10 μM): 0 | adult phenotype descriptors ([1]; 24 h, 1 µM): N | adult severity score ([1]; 24 h, 1 μM): 0 | adult phenotype descriptors ([1]; 24 h, 2 µM): N | adult severity score ([1]; 24 h, 2 μM): 0 | adult phenotype descriptors ([1]; 24 h, 5 µM): N | adult severity score ([1]; 24 h, 5 μM): 0 | adult phenotype descriptors ([1]; 24 h, 10 µM): unc | adult severity score ([1]; 24 h, 10 μM): 1 | adult phenotype descriptors ([1]; 48 h, 1 µM): N | adult severity score ([1]; 48 h, 1 μM): 0 | adult phenotype descriptors ([1]; 48 h, 2 µM): S, dark | adult severity score ([1]; 48 h, 2 μM): 2 | adult phenotype descriptors ([1]; 48 h, 5 µM): S, dark | adult severity score ([1]; 48 h, 5 μM): 2 | adult severity score ([1]; 48 h, 10 μM): 3
